# Results from US12617781B2, “Utidelone semi-hydrated single crystal and preparation method therefor and use thereof” (Beijing Biostar Pharmaceuticals Co., Ltd., priority 2020, dated 2026).
# Like-named read-outs stand apart in the source and are kept apart here.
# How the values were obtained:
# [1] = Stability under high humidity; assay type: physicochemical
# From the text: The semihydrate crystal obtained in Example 1 was placed under the condition of relative humidity of 90%±5% for 10 days, and samples were taken on the 5th and 10th days.
# Utidelone anhydrous crystal was placed under the condition of relative humidity of 90±5% for 10 days. Samples were taken on the 5th and 10th days. The moisture content increased and the moisture absorption was obvious.
# [2] = PK study on intravenous administration of the pharmaceutical composition containing Utidelone semihydrate crystal; assay type: in vivo; details: for MRT / AUC(0-t) / half-life: human, in vivo, iv, 40 mg/m2, intravenous infusion 40 mg/m2 once a day for 5 days; for AUC(0-t): read-out: AUC(0-24); for half-life: read-out: elimination half-life t½ in plasma (converted); for apparent volume of distribution / plasma clearance CL: intravenous infusion 40 mg/m2 once a day for 5 days
# Experimental: Utidelone injection was prepared with Utidelone crystals (crystal A or mixed crystals containing crystal A) and 50% v/v absolute ethanol (USP), 30% v/v propylene glycol (USP) and 20% v/v polyoxyl castor oil 1 (Cremophor EL or ELP) as a solubilizer. The injection has low water content and high stability.
# [3] = Stability in 0.1N hydrochloric acid solution; assay type: physicochemical
# Experimental: The semihydrate crystal obtained in Example 1 was placed in a 0.1N hydrochloric acid solution, and the crystal was stable: no obvious degradation impurities were produced. Solubility >5 mg/ml.
# [4] = Stability test of the semihydrate crystal under storage conditions (temperature); assay type: physicochemical
# Experimental: Stability test: The stability test of the semihydrate crystal was carried out under the following conditions:
# (§1) Storage condition 1: 2-25° C., stored in a sealed state for more than 3 years, confirmed by NMR, HPLC, X-ray powder diffraction and infrared spectrum analysis, etc., the semihydrate crystal was stable (no changes in content, no impurities due to degradation, no changes in appearance and physicochemical properties).
# as §1, with “Condition 2: 25°” for “condition 1: 2-25°”, “60%±10% RH, unsealed storage” for “stored in a sealed state”, “days, after the sample was continued to be stored at 25° C. for 1 year, it was” for “years,”
# as §1, with “3: Stored” for “1: 2-25° C., stored”, “state at 40° C.” for “state”, “2 years. It was” for “3 years,”
# as §1, with “Condition 4: Stored at 60° C.” for “condition 1: 2-25° C., stored in a sealed state”, “1 year. It was” for “3 years,”
# Solubility test = assay type: physicochemical; details: thermodynamic from solid
# [5] = Stability under strong light (light box); assay type: physicochemical; details: 4500 lx±500 lx, 10 days
# From the text: The semihydrate crystal obtained in Example 1 was placed in a light box, and placed for 10 days under the condition that the light intensity was 4500 lx±500 lx.
# [6] = relative humidity 90%±5%, 10 days, samples on 5th and 10th days
# [7] = high humidity conditions (summary statement)
smiles,measurement,setting,value
C/C1=C/C[C@@H](/C(C)=C/c2csc(C)n2)OC(=O)C[C@H](O)C(C)(C)C(=O)[C@H](C)[C@@H](O)[C@@H](C)CCC1 [Utidelone anhydrous crystal],Moisture content,[1]; [6],increased
same,Moisture absorption,"[1]; relative humidity 90±5%, 10 days, samples on 5th and 10th days",obvious
C/C1=C/C[C@@H](/C(C)=C/c2csc(C)n2)OC(=O)C[C@H](O)C(C)(C)C(=O)[C@H](C)[C@@H](O)[C@@H](C)CCC1 [Utidelone],Accumulation in the body after continuous administration,"[2]; 40 mg/m2 once a day for 5 days, first vs last administration",did not accumulate
same,MRT,[2]; 1st day,4.5 ± 0.8 h
same,AUC(0-t),[2]; 1st day,4180 ± 1010 ng·h/mL
same,half-life,[2]; 1st day,8.6 ± 0.1 h
same,MRT,[2]; 5th day,5.1 ± 0.7 h
same,AUC(0-t),[2]; 5th day,4550 ± 1630 ng·h/mL
same,half-life,[2]; 5th day,8.2 ± 1.1 h
same,apparent volume of distribution,[2]; 1st day,114.0±35.2 L/m2
same,plasma clearance CL,[2]; 1st day,9.2±2.7 L/h/m2
same,apparent volume of distribution,[2]; 5th day,109.1±62.6 L/m2
same,plasma clearance CL,[2]; 5th day,8.9±3.9 L/h/m2
C/C1=C/C[C@@H](/C(C)=C/c2csc(C)n2)OC(=O)C[C@H](O)C(C)(C)C(=O)[C@H](C)[C@@H](O)[C@@H](C)CCC1 [semihydrate crystal],Stability (degradation impurities),[3],stable
same,Storage time without changes in substance,[4]; 40° C.,more than 3 years
same,Storage time without changes in substance,[4]; 60° C.,more than 1 year
same,"Stability (content, degradation impurities, appearance, physicochemical properties)","[4]; Storage condition 1: 2-25° C., sealed, more than 3 years, NMR, HPLC, XRPD, IR",stable
same,"Stability (content, degradation impurities, appearance, physicochemical properties)","[4]; Storage condition 2: 25° C., 60%±10% RH, unsealed more than 3 days, then 25° C. for 1 year",stable
same,"Stability (content, degradation impurities, appearance, physicochemical properties)","[4]; Storage condition 3: sealed, 40° C., more than 2 years",stable
same,"Stability (content, degradation impurities, appearance, physicochemical properties)","[4]; Storage condition 4: 60° C., more than 1 year",stable
same,Stability,[1]; [7],very stable
same,Water content,[1]; [7],does not change significantly
same,Moisture content,[1]; [6],basically unchanged
same,"Stability (content, degradation impurities, appearance, physicochemical properties)",[1]; [6],stable
same,solubility,"Solubility test; 0.1N hydrochloric acid solution, simulated gastric fluid",> 5 mg/mL
same,solubility,"Solubility test; 50% ethanol, 30% propylene glycol, 20% castor oil, organic solvent or mixture",> 100 mg/mL
same,solubility,"Solubility test; DMSO, organic solvent or mixture",> 50 mg/mL
same,solubility,"Solubility test; benzyl alcohol, organic solvent or mixture",> 50 mg/mL
same,solubility,"Solubility test; ethanol, organic solvent or mixture",> 50 mg/mL
same,solubility,"Solubility test; methanol, organic solvent or mixture",> 50 mg/mL
same,solubility,"Solubility test; propylene glycol, organic solvent or mixture",> 50 mg/mL
same,Moisture content,[5],basically unchanged
same,"Stability (content, degradation impurities, appearance, physicochemical properties)",[5],stable
